According to PMC5720837, “Identification of a 4-fluorobenzyl L-valinate amide benzoxaborole (AN11736) as a potential development candidate for the treatment of Animal African Trypanosomiasis (AAT)” (Bioorganic & Medicinal Chemistry Letters, 2018):
Where “and” joins values, the source holds several entries; their conditions need not be identical. Equal entries are not always repeated.

Experiments:
T. vivax = assay: Efficacy against induced T. vivax infection in cattle; type: in vivo; conditions: single intramuscular injection of 10 mg/kg, 100 days post treatment
Method: (§1) Selected compounds were screened in both mouse and bovine in vitro metabolic stability assays (mouse S9 and bovine S9), as summarized in Table 2. These two species were chosen because the primary in vivo assays were conducted in mice, and the target animal of this research program is cattle. […] We evaluated the efficacy of selected compounds in two in vivo mouse models of infection, against T. congolense and T. vivax, respectively. Mice were infected with either 1 × 10^5 T. c. parasites or 1 × 10^4 T. v. parasites, and then treated with a test compound via intraperitoneal administration for 1, 2 or 4 consecutive days. The mice were then monitored for the presence of parasitemia for up to 60 days post treatment.[7] We tested in T. c. model first, then followed up with T. v. for interesting compounds. […] We selected compound 5 (AN11736) to progress to exploratory studies to determine the efficacy and safety in a preliminary formulation against induced infections of T. vivax and T. congolense in cattle.[8]
(§2) [8] Method for testing compound efficacy in cattle: The cattle studies were conducted in accordance with the method described for cattle by Eisler et al. (2001) in studies conducted in fly-proof facilities and using T. congolense and T. vivax isolates that had previously been confirmed resistant in cattle to diminazine (7 mg/kg live weight) and/or isometamidium (1 mg/kg live weight). […]

[1] = test system: T. v. parasites (STIB719/ILRAD560 strain); assay: In vivo mouse model of T. vivax infection; set-up: species or system NMRI female mice; conditions: for Efficacy in mouse model T. v., n/m (mice survived / total mice in group): intraperitoneal, monitored 60 days post treatment; for curative efficacy in the T. v.-infected mouse model: single dose of 10 mg/kg, IP
Method: as §1
(§3) [7] Methods for testing compound efficacy in mouse models: In vivo mouse efficacy studies were performed at the Swiss TPH, using established mouse models of infection for T. c. and T. v. NMRI female mice were independently infected either with 1 × 10^5T. c. parasites/mouse (STIB736/IL1180 strain) or 1 × 10^4T. v. parasites/mouse (STIB719/ILRAD560 strain) using an intraperitoneal route. Parasitemia was allowed to develop over 7 days (T. c.) or 3 days (T. v.), respectively, before treatment was administered. Compounds were administered via intraperitoneal injection in 10% DMSO/water. Four mice were used per treatment group. Mice were monitored for the presence of trypanosomes, via tail blood examination microscopically with twice-per-week parasitemia checks for 60 days post treatment. Parasitemia was graded on a scale of 0–3, with 0 indicating no trypanosomes seen in 20 fields of view, 1 indicating the presence of 1–5 trypanosomes per field, 2 indicating the presence of 6–20 trypanosomes per field and 3 indicating greater than 20 trypanosomes per field. Mice scoring 2 or 3 were immediately euthanized. After 60 days, aparasitemic mice were considered cured. Untreated control mice survive on average for 10 and 6 days post infection for T. c. and T. v., respectively. All in vivo mouse experiments were conducted in accordance with the strict guidelines set out by the Swiss Federal Veterinary Office, under the ethical approval of license number #2813.

[2] = test system: T. c. parasites (STIB736/IL1180 strain); assay: In vivo mouse model of T. congolense infection; set-up: species or system NMRI female mice; conditions: for Efficacy in mouse model T. c., n/m (mice survived / total mice in group): intraperitoneal, monitored 60 days post treatment
Method: as §1, §3

[3] = In vitro metabolic stability, bovine S9; type: in vitro ADME; conditions: S9 fraction
Method: as §1

[4] = test system: Trypanosoma congolense (T. congolense IL-3000 strain), bloodstream form; assay: Whole cell Alamar Blue assay, T. congolense (72 h in vitro); type: cell-based; conditions: T. congolense IL-3000, 72 h in vitro Alamar Blue assay
Method: (§4) Activity of compounds 1–71 against T. congolense and T. vivax was determined using the whole cell assays as described ^6 and their IC50 values are summarized in Table 1.
(§5) [6] Assay methods for determination of T. c. and T. v. […] Culture media consisted of complete HMI-9 (IMDM) with 20% bovine serum. To ensure log growth phase, trypanosomes were sub-cultured at appropriate dilutions every 2–3 days. Bloodstream form Trypanosoma vivax (T. vivax) cannot be cultured axenically, therefore trypanosomes (T. vivax STIB719/ILRAD 560 strain) were harvested from a highly parasitemia mouse via cardiac puncture and used directly in the ex vivo drug sensitivity assay on the same day. […] Parasite starting concentrations of 2 × 10^5 (T. c.) and 4 × 10^5 (T. v.) were calculated respectively, using a cell analyzer system or haemo-cytometer, followed by quantification at 536 nm excitation and 588 nm emission wavelengths using a […] reader. Test compounds were prepared as 10 mg/mL DMSO stocks for each assay run. Compounds were assayed in at least three separate, independent test runs and an 11-point dilution curve was used to determine the IC50 values. Data points were averaged to generate sigmoidal dose-response curves and IC50 values were determined using Softmax Pro 5.2 software.

T. congolense = assay: Efficacy against induced T. congolense infection in cattle; type: in vivo; conditions: single intramuscular injection of 10 mg/kg, 100 days post treatment
Method: as §1, §2

[5] = test system: Trypanosoma vivax (T. vivax STIB719/ILRAD 560 strain), bloodstream form; assay: Whole cell Alamar Blue assay, T. vivax (48 h ex vivo); type: cell-based; conditions: Trypanosoma vivax; T. vivax STIB719/ILRAD 560, 48 h ex vivo Alamar Blue assay
Method: as §4, §5

[6] = In vitro metabolic stability, mouse S9; type: in vitro ADME; conditions: S9 fraction
Method: as §1

| Structure (SMILES) | curative efficacy against T. vivax in cattle (T. vivax) [%] | Efficacy in mouse model T. v., n/m (mice survived / total mice in group) ([1]; 1 × 10 mg/kg, 10 mg/kg) | Efficacy in mouse model T. v., n/m (mice survived / total mice in group) ([1]; 2 × 10 mg/kg) | curative efficacy in the T. v.-infected mouse model [1] [%] | Efficacy in mouse model T. c., n/m (mice survived / total mice in group) ([2]; 1 × 5 mg/kg) | Efficacy in mouse model T. c., n/m (mice survived / total mice in group) ([2]; 1 × 10 mg/kg) | Efficacy in mouse model T. c., n/m (mice survived / total mice in group) ([2]; 2 × 10 mg/kg) | cure of T. c.-infected mice ([2]; single 5 mg/kg dose, IP) | microsomal CLint [3] [µL/min/mg] | IC50 [4] [nM] | IC50 ([4]; Trypanosoma congolense, 72 h) [nM] | curative efficacy against T. congolense in cattle (T. congolense) [%] | IC50 [5] [nM] | microsomal CLint [6] [µL/min/mg] | Efficacy in mouse model T. v., n/m (mice survived / total mice in group) ([1]; 1 × 10 mg/kg) | curative efficacy in the T. c.-infected mouse model ([2]; single dose of 10 mg/kg, IP) [%] |
| --- | --- | --- | --- | --- | --- | --- | --- | --- | --- | --- | --- | --- | --- | --- | --- | --- |
| Cc1c(C(=O)N[C@H](C(=O)OCc2ccc(F)cc2)C(C)C)ccc2c1B(O)OC2 [Compound 5, 4-fluorobenzyl (1-hydroxy-7-methyl-1,3-dihydrobenzo[c][1,2]oxaborole-6-carbonyl)-L-valinate] | 100 | 5/5 and 4/4 | 5/5 | 100 | 0/4 | 4/4 | 5/5 | unable to cure | 9.3 | 0.14 | 0.15 | 100 | 1.3 | 5.4 |  |  |
| Cc1c(C(=O)N[C@H](C(=O)OCc2cccc(N3CCN(C)CC3)c2)C(C)C)ccc2c1B(O)OC2 [Compound 50] |  |  |  |  |  | 1/4 (1 × 10) |  |  | 12.7 |  | 0.32 |  | 0.48 | 8.6 | 4/4 (1 × 10) |  |
| Cc1c(C(=O)N[C@H](C(=O)OCc2cccc(CN(C)C)c2)C(C)C)ccc2c1B(O)OC2 [Compound 51] |  |  |  |  |  | 0/4 (1 × 10) |  |  | 5 |  | 0.25 |  | 0.21 | 1.8 | 4/4 (1 × 10) |  |
| Cc1c(C(=O)N[C@H](C(=O)OCC2CCCCC2)C(C)C)ccc2c1B(O)OC2 [Compound 62] |  |  |  | 100 |  | 2/4 (1 × 10) |  |  | 20 |  | 0.38 |  | 0.16 | 10 | 4/4 (1 × 10) | ≥ 50 |
| Cc1c(C(=O)N[C@H](C(=O)OCC2CCOCC2)C(C)C)ccc2c1B(O)OC2 [Compound 63] |  |  |  |  |  | 1/4 (1 × 10) |  |  | 1.5 |  | 0.39 |  | 0.09 | 0.9 | 4/4 (1 × 10) |  |
| Cc1c(C(=O)N[C@H](C(=O)OC2CCOCC2)C(C)C)ccc2c1B(O)OC2 [Compound 69] |  |  |  |  |  | 1/4 (1 × 10) |  |  | 0.6 |  | 0.47 |  | 1.6 | 0.7 | 1/4 (1 × 10) |  |
| Cc1c(C(=O)N[C@H](C(=O)OC2CCC(F)(F)CC2)C(C)C)ccc2c1B(O)OC2 [Compound 70] |  |  |  |  |  | 1/4 (1 × 10) |  |  | 0.3 |  | 0.34 |  | 2.28 | 1.5 | 4/4 (1 × 10) |  |
| Cc1c(C(=O)N[C@H](C(=O)OCC2CCC(F)(F)CC2)C(C)C)ccc2c1B(O)OC2 [Compound 71] |  |  |  | 100 |  | 3/4 (1 × 10) |  |  | 8.1 |  | 0.2 |  | 0.14 | 6.4 | 4/4 (1 × 10) |  |
